Data set [1] deals with C6 cells. Description: In vitro potency test/neutralization assay with fish sera on C6 cells. The class given is cell-based, rats. On the procedure: In line with Example 7, an in vitro potency test/neutralization assay was performed with the sera raised as described in Example 8. For this, C6 cells were seeded at 2.0*10^4 cells/ml, 100 μl per well, and grown at 37° C., 5% CO2 for 3 days. Cells were incubated for 48 h, with a combination of 20 μg/ml AFB1 and 32× diluted serum derived from fish vaccinated with AFB1-KLH in GNE or vaccinated with a placebo. Percentages of live cells were determined by microscopical evaluation.

The subject of data set [2] is C6 cells. Format: cell-based, rats.
Data set [3] is classed as in vivo. The settings on record: pig plasma; DON bolus 0.05 mg/kg at 11 weeks of age; DON-KLH = pigs immunised IM at 3 and 6 weeks, DON = control pigs. As for the experimental part: Ten 3 week old pigs were used in the study, divided over 2 groups of 5 pigs each. The pigs in Group 1 were immunised IM twice at 3 and 6 weeks of age with DON-KLH (Test Article 1; example1). Group 2 served as a control and only received a control fluid. At the age of 11 weeks the animals were each administered DON (Fermentek, Israel) via a bolus at a dose of 0.05 mg/kg which (based on the daily feed intake) resembled a contamination level of 1 mg/kg feed. Blood samples of the pigs were taken juts before DON administration and 0.25, 0.5, 0.75, 1, 1.5, 2, 3, 4, 6, 8, and 12 h post DON administration.
Plasma analysis of unbound DON was done using a validated LC-MS/MS method on an Acquity® UPLC system coupled to a Xevo® TQ-S MS instrument (Waters, Zellik, Belgium). The lower limit of quantification of DON in pig plasma using this method is 0.1 ng/ml.
Toxicokinetic modeling of the plasma concentration-time profiles of DON was done by noncompartmental analysis (Phoenix, Pharsight Corporation, USA). Following parameters were calculated: area under the curve from time zero to infinite (AUC0→∞), maximal plasma concentration (Cmax), and time at maximal plasma concentration (tmax).

Molecules are shown by their SMILES. Where “and” joins values, the source holds several entries; their conditions need not be identical. Equal values may be shown once. A value given as a limit tells only on which side of the number the result lay.

Turning to `COc1cc2c(c3oc(=O)c4c(c13)CCC4=O)[C@@H]1C=CO[C@@H]1O2` [AFB1, Aflatoxin B1], the “Percentage live cells after incubation with AFB1 and diluted fish serum” value in the data set on C6 cells [1] was 95% and 65%. For the same molecule, the “concentration from which toxic on C6 cells (dose response curve)” value with C6 cells [2] was at least 20000 ng/mL.
Turning to `CC1=C[C@H]2O[C@@H]3[C@H](O)C[C@](C)([C@@]2(CO)[C@H](O)C1=O)[C@]31CO1` [DON, deoxynivalenol], in data set [3], the “AUC0→∞ of unbound DON” value is on record as 187 ± 33 and the “Cmax of unbound DON” value amounted to 30.8 ± 2.5.

(Values after patent publication US20240024446A1 (priority 2020, published 2024).)
